Measurements as given in patent publication US20070071672A1, “Use of metal tricarbonyl complexes as radiotherapeutic chemotoxic agents” (priority 2003, published 2007).

Experiments:
ΦX174 plasmid DNA [1] = test: Stability of the [M(CO)3]+ ΦX174 plasmid DNA adduct, histidine challenge; type: binding; conditions: 100-fold excess of histidine
Experimental: (§1) ΦX174 plasmids were purchased from Promega and used without further purification. ΦX174 RF plasmid DNA (0.1 mg) was mixed with the corresponding rhenium complexes in H2O at [complex]/[bp] 0.018-1.8/1. The mixtures were incubated in water at 37° C. for 22 h in the dark before analyzing by gel electrophoresis. The pH of the mixtures remained constant at ≈7 in all cases.
(§2) DNA binding was examined by gel electrophoretic mobility shift assays through 9 cm 0.75% agarose slab gels with TAE running buffer. The gels were run at RT, with voltages varying between 50 and 75 V. Running time depended upon the voltage and were usually between 1.5-2 h. The resultant gels were stained with ethidium bromide in the buffer at a concentration of ≈0.3 μg/mL. Bands were visualized by […] UV transillumination equipped with a digital camera.
Complexes 1 and 7 were incubated with ΦX174 plasmid DNA as described in Example 6. Subsequently, the plasmid was challenged with histidine to cleave the complexes from ΦX174 plasmid DNA.

[2] = tested on: B16 F1 mouse melanoma cells; test: XTT cell proliferation assay, melanoma cells; conditions: 200 μM based on Re (lower for poorly soluble complexes), 24 h
Experimental: (§3) In a typical experiment (see FIG. 10) an average of 2000 cells were grown in microtiter plates (tissue culture grade, 96 wells, flat bottom) in a final volume of 100 μL culture medium per well in a humidified-atmosphere (37° C., >6.5% CO2). After 24 h the rhenium complex was added the wells (final concentrations 200 μM based on Re) and the cells were grown for further 24 h under a humidified atmosphere. After the incubation period 50 μL of the XTT labeling mixture were added to each well. The plates were incubated again for 4 h. After the this final incubation period the spectrophotometrical absorbance (optical density OD) of each well was measured at 450 nm.
(§4) Control experiments were performed as described above without the addition of the rhenium compounds. Blanks were obtained by adding 50 μL of H2O instead of the XTT labeling mixture. Experiments were done in double and the results represent the average.
(§5) The % of cell survival was calculated base on the relative OD of the samples. Maximum control OD was set to 100% cell survival.
(§6) The procedure is as described in Example 10 and FIG. 10. Only the cancer cell line varies.

[3] = tested on: OVMZ-6-WT Ovarian Cancer Cells; test: XTT cell proliferation assay, ovarian cancer cells; parameters: species or system human; conditions: 200 μM based on Re, 24 h
Experimental: as §3, §4, §5, §6

[4] = tested on: MDA-MB-4355 Breast Cancer Cells; test: XTT cell proliferation assay, breast cancer cells; parameters: species or system human; conditions: 200 μM based on Re, 24 h
Experimental: as §3, §4, §5

ΦX174 plasmid DNA [5] = test: Interaction with ΦX174 plasmid DNA, gel electrophoretic mobility shift; type: binding; conditions: [complex]/[bp] 0.018-1.8/1, water, 37° C., 22 h, agarose gel
Experimental: as §1, §2

Compound | release of complex from ΦX174 plasmid DNA by histidine (ΦX174 plasmid DNA [1]) | cytotoxicity (% of cell survival) [2] | cytotoxicity (% of cell survival) [3] | cytotoxicity (% of cell survival) [4] | scrambling (structural change) of ΦX174 plasmid DNA (ΦX174 plasmid DNA [5])
(Et4N)2[ReBr3(CO)3] [Complex 1] | no release could be observed | strongly inhibit cell proliferation | inhibits cell proliferation | inhibit cell proliferation | –
[Re(9-MeG)2(H2O) (CO)3] (ClO4) [Complex 3] | – | – | – | inhibit cell proliferation | –
N.N.[Cl][Pt][Cl] [cisplatin, reference compound] | – | – | – | – | increased amount of scrambling
